Positions of bridges follow the written chain, without caps; N, C: chain ends. Non-standard residues stand in square brackets, D forms with d. Residues, ends and D or L forms follow the SMILES beside them. *: point of attachment. Orn(2-imidazolinyl) = N[C@@H](CCCNC1=NCCN1)C(=O)O; Dihydroorotyl(S) = O=C1C[C@@H](C(=O)*)NC(=O)N1; Phe(2,4-Cl2) = N[C@@H](Cc1ccc(Cl)cc1Cl)C(=O)O; Phe(3-Cl) = N[C@@H](Cc1cccc(Cl)c1)C(=O)O; Phe(2-Cl) = N[C@@H](Cc1ccccc1Cl)C(=O)O; Phe(4-F) = N[C@@H](Cc1ccc(F)cc1)C(=O)O; 1Nal = N[C@@H](Cc1cccc2ccccc12)C(=O)O; 2Nal = N[C@@H](Cc1ccc2ccccc2c1)C(=O)O; Bta = N[C@@H](Cc1csc2ccccc12)C(=O)O; Hyp = O=C(O)[C@@H]1C[C@@H](O)CN1; d(hLeu) = CC(C)CC[C@@H](N)C(=O)O; dCha = N[C@H](CC1CCCCC1)C(=O)O; Nle = CCCC[C@H](N)C(=O)O; Orn = NCCC[C@H](N)C(=O)O; Pra = C#CC[C@H](N)C(=O)O; Aze = O=C(O)[C@@H]1CCN1; tBu = CC(C)(C)*
These molecules were tested against T1, human C5aR(CD88) (Homo sapiens, UniProt P21730) (assay: Determination of the IC50 value in an enzyme release assay (functional assay, antagonistic activity)). Details: antagonistic activity; IC50 group in enzyme release assay, RBL cells expressing human C5aR(CD88); read-out: activity (group).
T1 construct: expressed in transfected cells; host or cells: rat basophilic leukemia cells (RBL)
T1 sequence (P21730 1-350): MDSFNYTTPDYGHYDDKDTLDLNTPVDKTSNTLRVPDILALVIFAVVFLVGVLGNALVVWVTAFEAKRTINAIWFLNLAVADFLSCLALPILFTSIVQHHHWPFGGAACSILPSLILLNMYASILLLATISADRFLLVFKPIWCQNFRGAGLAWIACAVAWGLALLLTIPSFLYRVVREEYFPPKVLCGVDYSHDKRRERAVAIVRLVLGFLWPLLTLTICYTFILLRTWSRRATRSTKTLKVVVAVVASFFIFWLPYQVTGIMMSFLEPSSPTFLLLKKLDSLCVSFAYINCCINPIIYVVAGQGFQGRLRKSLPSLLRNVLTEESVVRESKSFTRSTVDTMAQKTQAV
Assay type: cell-based
`CC(C)CC[C@H]1NC(=O)[C@@H]2CCCN2C(=O)[C@@H](NC(=O)[C@@H](N)Cc2ccccc2)CCCNC(=O)[C@H](Cc2ccccc2)NC(=O)[C@H](Cc2cccc(Cl)c2)NC1=O` [Compound 377, H-Phe-[Orn-Pro-hle-Mcf-Phe]] (H-F[Orn]P[d(hLeu)][Phe(3-Cl)]F; lactam 2-C) showed an IC50 of 20 to 50 nM.
Molecule `CC(=O)N[C@@H](Cc1ccccc1)C(=O)N[C@@H](CCCNC1=NCCN1)C(=O)N1CC[C@H]1C(=O)N[C@H](CC1CCCCC1)C(=O)N[C@@H](Cc1csc2ccccc12)C(=O)N[C@@H](Cc1ccccc1)C(N)=O` [Compound 224, Ac-Phe-Ffa-Aze-cha-Bta-Phe-NH2] (Ac-F[Orn(2-imidazolinyl)][Aze][dCha][Bta]F-NH2) has an IC50 of 20 to 50 nM.
In the case of `CC(=O)N[C@@H](Cc1ccccc1)C(=O)N[C@H]1CCCNC(=O)[C@H](Cc2ccc3ccccc3c2)NC(=O)[C@H](Cc2c[nH]c3ccccc23)NC(=O)[C@@H](CC2CCCCC2)NC(=O)[C@@H]2CCCN2C1=O` [Compound 37, Ac-Phe-[Orn-Pro-cha-Trp-2Ni]] (Ac-F[Orn]P[dCha]W[2Nal]; lactam 2-C), the IC50 is reported as 50 to 200 nM.
`CC(=O)N[C@@H](CCCCN)C(=O)N[C@@H](Cc1ccccc1)C(=O)N[C@@H](CCCN)C(=O)N1CC[C@H]1C(=O)N[C@H](CC1CCCCC1)C(=O)N[C@@H](Cc1csc2ccccc12)C(=O)N[C@@H](Cc1ccccc1)C(N)=O` [Compound 160, Ac-Lys-Phe-Orn-Aze-cha-Bta-Phe-NH2] (Ac-KF[Orn][Aze][dCha][Bta]F-NH2) was tested, and the IC50 was 20 to 50 nM.
`CCCC[C@@H]1NC(=O)[C@H](Cc2c[nH]c3ccccc23)NC(=O)[C@@H](CC2CCCCC2)NC(=O)[C@@H]2CCCN2C(=O)[C@@H](NC(=O)[C@@H](N)Cc2ccccc2)CCCNC1=O` [Compound 376, H-Phe-[Orn-Pro-cha-Trp-Nle]] (H-F[Orn]P[dCha]W[Nle]; lactam 2-C) gave an IC50 of 50 to 200 nM.
In the case of `CCCC[C@@H]1NC(=O)[C@H](Cc2c[nH]c3ccccc23)NC(=O)[C@@H](CC2CCCCC2)NC(=O)[C@H]([C@@H](C)O)NC(=O)[C@@H](NC(=O)[C@H](Cc2ccccc2)NC(C)=O)CCCNC1=O` [Compound 203, Ac-Phe-[Orn-Thr-cha-Trp-Nle]] (Ac-F[Orn]T[dCha]W[Nle]; lactam 2-C), the IC50 is reported as 50 to 200 nM.
`CC(=O)N[C@@H](Cc1ccccc1)C(=O)N[C@@H](CCCN)C(=O)N1CCC[C@H]1C(=O)N[C@H](CCC(C)C)C(=O)N[C@@H](Cc1csc2ccccc12)C(=O)N[C@@H](Cc1ccc(Cl)cc1Cl)C(N)=O` [Compound 277, Ac-Phe-Orn-Pro-hle-Bta-Egy-NH2] (Ac-F[Orn]P[d(hLeu)][Bta][Phe(2,4-Cl2)]-NH2) gave an IC50 of 50 to 200 nM.
Molecule `CC(=O)N[C@@H](Cc1ccccc1)C(=O)N[C@@H](CCCN)C(=O)N1CCC[C@H]1C(=O)N[C@H](CCC(C)C)C(=O)N[C@@H](Cc1ccccc1Cl)C(=O)N[C@@H](Cc1ccccc1)C(N)=O` [Compound 294, Ac-Phe-Orn-Pro-hle-Ocf-Phe-NH2] (Ac-F[Orn]P[d(hLeu)][Phe(2-Cl)]F-NH2) has an IC50 of 50 to 200 nM.
`CCCC[C@@H]1NC(=O)[C@H](Cc2ccc(F)cc2)NC(=O)[C@@H](CCC(C)C)NC(=O)[C@@H]2C[C@@H](O)CN2C(=O)[C@@H](NC(=O)[C@H](Cc2ccccc2)NC(=O)[C@@H]2CC(=O)NC(=O)N2)CCCNC1=O` [Compound 347, Hoo-Phe-[Orn-Hyp-hle-Pff-Nle]] ({Dihydroorotyl(S)}-F[Orn][Hyp][d(hLeu)][Phe(4-F)][Nle]; lactam 2-C) was tested, and the IC50 was 50 to 200 nM.
Molecule `CC(=O)N[C@@H](Cc1ccccc1)C(=O)N[C@@H](CCCN)C(=O)N1CCC[C@H]1C(=O)N[C@H](CSC(C)(C)C)C(=O)N[C@@H](Cc1csc2ccccc12)C(=O)N[C@@H](Cc1ccccc1)C(N)=O` [Compound 263, Ac-Phe-Orn-Pro-ctb-Bta-Phe-NH2] (Ac-F[Orn]P[dC](tBu)[Bta]F-NH2) has an IC50 of 20 to 50 nM.
With `C#CC[C@@H]1NC(=O)[C@H](Cc2c[nH]c3ccccc23)NC(=O)[C@@H](CC2CCCCC2)NC(=O)[C@@H]2CCCN2C(=O)[C@@H](NC(=O)[C@H](Cc2ccccc2)NC(C)=O)CCCNC1=O` [Compound 35, Ac-Phe-[Orn-Pro-cha-Trp-Eag]] (Ac-F[Orn]P[dCha]W[Pra]; lactam 2-C) the IC50 was 5 to 10 nM.
Molecule `CC(=O)N[C@@H](Cc1ccccc1)C(=O)N[C@H]1CCCNC(=O)[C@H](Cc2cccc3ccccc23)NC(=O)[C@H](Cc2c[nH]c3ccccc23)NC(=O)[C@@H](CC2CCCCC2)NC(=O)[C@@H]2CCCN2C1=O` [Compound 58, Ac-Phe-[Orn-Pro-cha-Trp-1Ni]] (Ac-F[Orn]P[dCha]W[1Nal]; lactam 2-C) has an IC50 of 20 to 50 nM.

Same assay, conditions: functional assay of example 11; noteworthy = IC50 less than 200 nM
`CC(=O)N[C@@H](Cc1ccccc1)C(=O)N[C@H]1CCCNC(=O)[C@H](Cc2ccc3ccccc3c2)NC(=O)[C@H](Cc2c[nH]c3ccccc23)NC(=O)[C@@H](CC2CCCCC2)NC(=O)[C@@H]2CCCN2C1=O` [Compound 37, Ac-Phe-[Orn-Pro-cha-Trp-2Ni]] (Ac-F[Orn]P[dCha]W[2Nal]; lactam 2-C) was tested, and the “inhibitory activity (in words)” value was “without significant loss of activity”.
In the case of `C#CC[C@@H]1NC(=O)[C@H](Cc2c[nH]c3ccccc23)NC(=O)[C@@H](CC2CCCCC2)NC(=O)[C@@H]2CCCN2C(=O)[C@@H](NC(=O)[C@H](Cc2ccccc2)NC(C)=O)CCCNC1=O` [Compound 35, Ac-Phe-[Orn-Pro-cha-Trp-Eag]] (Ac-F[Orn]P[dCha]W[Pra]; lactam 2-C), the “inhibitory activity (in words)” value is reported as “without significant loss of activity”.

Same assay, conditions: functional assay of example 11; noteworthy = IC50 less than 200 nM; listed as Ac-Phe-[Orn-Pro-cha-Trp-2Ni]
With `CC(=O)N[C@@H](Cc1ccccc1)C(=O)N[C@H]1CCCNC(=O)[C@H](Cc2ccc3ccccc3c2)NC(=O)[C@H](Cc2c[nH]c3ccccc23)NC(=O)[C@@H](CC2CCCCC2)NC(=O)[C@@H]2CCCN2C1=O` [Compound 37, Ac-Phe-[Orn-Pro-cha-Trp-2Ni]] (Ac-F[Orn]P[dCha]W[2Nal]; lactam 2-C) the “inhibitory activity (in words)” value was “noteworthy inhibitory activity”.

Same assay, conditions: functional assay of example 11; noteworthy = IC50 less than 200 nM; listed as Ac-Phe-[Orn-Pro-cha-Trp-Eag]
In the case of `C#CC[C@@H]1NC(=O)[C@H](Cc2c[nH]c3ccccc23)NC(=O)[C@@H](CC2CCCCC2)NC(=O)[C@@H]2CCCN2C(=O)[C@@H](NC(=O)[C@H](Cc2ccccc2)NC(C)=O)CCCNC1=O` [Compound 35, Ac-Phe-[Orn-Pro-cha-Trp-Eag]] (Ac-F[Orn]P[dCha]W[Pra]; lactam 2-C), the “inhibitory activity (in words)” value is reported as “noteworthy inhibitory activity”.
